The values below come from patent US9981933B2, “Detergent compositions” (INNOSPEC LIMITED, priority 2013, dated 2018).

Data set [1] is described as follows: In house foaming test (comparative foam heights). The format is physicochemical. The note with it: 1 wt % surfactant solution; relative to 1 wt % Sodium Laureth Sulphate (3EO) = 100. As to the method: A 1 wt % surfactant solution was prepared. The foam heights were measured using an in house foaming test and the results were compared with those obtained using a composition comprising 1 wt % Sodium Laureth Sulphate (3EO) [SLES].

Data set [2] deals with Zein. Put plainly: In house qualitative test based on the Zein test (irritancy/mildness). The data set is classed as in vitro. The note with it: 1% surfactant solution; qualitative comparison. As to the method: The mass of residual Zein is determined gravimetrically.

On to “Ascorbyl Monolaurate Sulphate [Compound 2]”, for which the “Relative foam height compared to SLES as %” value (“Relative foam height … as %” below) in data set [1] came to 105%. Moreover, the irritancy/mildness result in data set [2] was “milder than many commercially available personal care surfactants including Sodium Laureth Sulfate (3EO) [SLES]”. Consider `CCCCCCCCCCCC(=O)OC[C@H](O)[C@H]1OC(=O)C(O)=C1O` [Compound 1, Ascorbyl Monolaurate], for which the “Relative foam height … as %” value in data set [1] is given as 32%. For Sodium Laureth Sulphate (3EO), in data set [1], the “Relative foam height … as %” value came to 100%.
